# Measurements: PubChem BioAssay AID330 (DTP/NCI, 2004)
# Several values for one entry are separate records, joined by “and”; a condition that tells them apart may be missing. Equal entries are not always repeated. Toxic doses and inconclusive results are not listed.
# System: P388 leukemia ip, CD2F1 mice, survival T/C
# Assay: NCI In Vivo Anticancer Drug Screen. Data for tumor model P388 Leukemia (intraperitoneal) in CD2F1 (CDF1) mice
# Conditions: endpoint: median survival time, higher = longer survival
# How it was run: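 Mice carrying the transplanted tumor received test compound or vehicle. Survival was recorded in each group, and the value is the treated-group measurement divided by that of the vehicle-treated control group.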
# [1] = dose: 25.0 mg/kg/injection, schedule: Q01DX005 (ip), vehicle: saline
# [2] = dose: 50.0 mg/kg/injection, schedule: Q01DX005 (ip), vehicle: saline
# [3] = dose: 37.5 mg/kg/injection, schedule: Q01DX009 (ip), vehicle: saline with Tween-80
# [4] = dose: 75.0 mg/kg/injection, schedule: Q01DX009 (ip), vehicle: saline with Tween-80
# [5] = dose: 50.0 mg/kg/injection, schedule: Q01DX005 (ip), vehicle: Klucel (hydroxypropylcellulose) (HPC)
# [6] = dose: 100.0 mg/kg/injection, schedule: Q01DX005 (ip), vehicle: Klucel (hydroxypropylcellulose) (HPC)
# [7] = dose: 200.0 mg/kg/injection, schedule: Q01DX005 (ip), vehicle: Klucel (hydroxypropylcellulose) (HPC)
# [8] = dose: 60.0 mg/kg/injection, schedule: Q01DX005 (ip), vehicle: Klucel (hydroxypropylcellulose) (HPC)
# [9] = dose: 60.0 mg/kg/injection, schedule: Q01DX005 (ip), vehicle: saline with Tween-80
# [10] = dose: 120.0 mg/kg/injection, schedule: Q01DX005 (ip), vehicle: Klucel (hydroxypropylcellulose) (HPC)
# [11] = dose: 120.0 mg/kg/injection, schedule: Q01DX005 (ip), vehicle: saline with Tween-80
# [12] = dose: 240.0 mg/kg/injection, schedule: Q01DX005 (ip), vehicle: Klucel (hydroxypropylcellulose) (HPC)
# [13] = dose: 100.0 mg/kg/injection, schedule: Q04DX003 (ip), vehicle: Klucel (hydroxypropylcellulose) (HPC)
# [14] = dose: 200.0 mg/kg/injection, schedule: Q04DX003 (ip), vehicle: Klucel (hydroxypropylcellulose) (HPC)
# [15] = dose: 400.0 mg/kg/injection, schedule: Q04DX003 (ip), vehicle: Klucel (hydroxypropylcellulose) (HPC)
# [16] = dose: 50.0 mg/kg/injection, schedule: Q01DX005 (ip), vehicle: saline with Tween-80
# [17] = dose: 100.0 mg/kg/injection, schedule: Q01DX005 (ip), vehicle: saline with Tween-80
smiles,measurement,setting,value
CCC1(O)CC(OC2CC(N(C)C)C(OC3CC(O)C(OC4CC(O)C(O)C(C)O4)C(C)O3)C(C)O2)c2c(cc3c(c2O)C(=O)c2c(O)ccc(O)c2C3=O)C1C(=O)OC (stereo not given),T/C,"dose: 3.13 mg/kg/injection, schedule: Q04DX003 (ip), vehicle: Klucel (hydroxypropylcellulose) (HPC)",105 % of control
same,T/C,"dose: 6.25 mg/kg/injection, schedule: Q04DX003 (ip), vehicle: Klucel (hydroxypropylcellulose) (HPC)",99 % of control
same,T/C,"dose: 12.5 mg/kg/injection, schedule: Q04DX003 (ip), vehicle: Klucel (hydroxypropylcellulose) (HPC)",105 % of control
same,T/C,"dose: 25.0 mg/kg/injection, schedule: Q04DX003 (ip), vehicle: Klucel (hydroxypropylcellulose) (HPC)",118 % of control
COc1cc(NCC(C)(O)CN(CC(C)C)CC(C)C)c2ncccc2c1 (stereo not given),T/C,"dose: 12.5 mg/kg/injection, schedule: Q01DX005 (ip), vehicle: saline",106 % of control
same,T/C,[1],106 % of control
same,T/C,[2],112 % of control and 97 % of control
O=C1CCC(=O)N1CO,T/C,[3],107 % of control
same,T/C,[4],120 % of control
COc1cc(C2SCC(=O)N2c2nncs2)c([N+](=O)[O-])cc1OC (stereo not given),T/C,[5],91 % of control
same,T/C,[6],91 % of control
same,T/C,[7],89 % of control
N=C(N)c1ccc(N=Nc2c(O)c(C(=O)Nc3ccccc3)cc3ccccc23)cc1,T/C,[5],100 % of control
same,T/C,[6],101 % of control
same,T/C,[7],100 % of control
COC12C=CC(=O)N1CCC2 (stereo not given),T/C,"dose: 7.5 mg/kg/injection, schedule: Q01DX005 (ip), vehicle: DMSO",90 % of control
same,T/C,"dose: 15.0 mg/kg/injection, schedule: Q01DX005 (ip), vehicle: DMSO",101 % of control
same,T/C,"dose: 30.0 mg/kg/injection, schedule: Q01DX005 (ip), vehicle: DMSO",101 % of control
S=c1ncc2[nH]cnc2[nH]1,T/C,[5],99 % of control
same,T/C,[6],105 % of control
same,T/C,[7],105 % of control
Cc1ccc2nc3ccccc3c(SCCCCCCSc3c4ccccc4nc4ccc(C)cc34)c2c1,T/C,[8],89 % of control
same,T/C,[9],107 % of control
same,T/C,[10],87 % of control
same,T/C,[11],90 % of control
same,T/C,[12],87 % of control
C/C(=N\O)C1(O)CCCCC1,T/C,"dose: 50.0 mg/kg/injection, schedule: Q01DX009 (ip), vehicle: Klucel (hydroxypropylcellulose) (HPC)",108 % of control
same,T/C,"dose: 100.0 mg/kg/injection, schedule: Q01DX009 (ip), vehicle: Klucel (hydroxypropylcellulose) (HPC)",108 % of control
same,T/C,"dose: 200.0 mg/kg/injection, schedule: Q01DX009 (ip), vehicle: Klucel (hydroxypropylcellulose) (HPC)",105 % of control
same,T/C,"dose: 400.0 mg/kg/injection, schedule: Q01DX009 (ip), vehicle: Klucel (hydroxypropylcellulose) (HPC)",113 % of control
CN=C(N)N/N=C/c1ccc(-c2ccccc2)cc1,T/C,"dose: 25.0 mg/kg/injection, schedule: Q04DX002 (ip), vehicle: saline",105 % of control
same,T/C,"dose: 50.0 mg/kg/injection, schedule: Q04DX002 (ip), vehicle: saline",111 % of control
CCOC(=O)c1c(-c2ccccc2)noc1N,T/C,[1],100 % of control
same,T/C,[2],100 % of control
same,T/C,"dose: 100.0 mg/kg/injection, schedule: Q01DX005 (ip), vehicle: saline",98 % of control
same,T/C,"dose: 200.0 mg/kg/injection, schedule: Q01DX005 (ip), vehicle: saline",100 % of control
same,T/C,"dose: 400.0 mg/kg/injection, schedule: Q01DX005 (ip), vehicle: saline",104 % of control
c1ccc2c(c1)nnc1ccccc12,T/C,"dose: 50.0 mg/kg/injection, schedule: Q01DX005 (ip), vehicle: Klucel + Tween-80",102 % of control
same,T/C,"dose: 100.0 mg/kg/injection, schedule: Q01DX005 (ip), vehicle: Klucel + Tween-80",96 % of control
same,T/C,"dose: 200.0 mg/kg/injection, schedule: Q01DX005 (ip), vehicle: Klucel + Tween-80",102 % of control
O=C(Oc1ccc(=O)[nH]n1)c1ccccc1,T/C,[8],102 % of control
same,T/C,[10],115 % of control
same,T/C,[12],111 % of control
O=c1n(-c2ccccc2)c(=O)n2n1C1C3C4C3C2C2(F)C4C12 (stereo not given),T/C,"dose: 3.0 mg/kg/injection, schedule: Q04DX002 (ip), vehicle: Klucel (hydroxypropylcellulose) (HPC)",95 % of control
same,T/C,"dose: 6.0 mg/kg/injection, schedule: Q04DX002 (ip), vehicle: Klucel (hydroxypropylcellulose) (HPC)",101 % of control
same,T/C,"dose: 12.5 mg/kg/injection, schedule: Q04DX002 (ip), vehicle: Klucel (hydroxypropylcellulose) (HPC)",108 % of control
CC(=O)OC12CCCCC(CCCC1)O2,T/C,[13],100 % of control
same,T/C,[14],99 % of control
same,T/C,[15],100 % of control
CCOC(=O)N1C=CC2(C=C1)CCCCCC2,T/C,"dose: 37.5 mg/kg/injection, schedule: Q04DX003 (ip), vehicle: Klucel (hydroxypropylcellulose) (HPC)",101 % of control
same,T/C,"dose: 75.0 mg/kg/injection, schedule: Q04DX003 (ip), vehicle: Klucel (hydroxypropylcellulose) (HPC)",98 % of control
C=C1CC(OC(C)=O)/C=C(/C)CCC(C(C)(C)O)CC1O (stereo not given),T/C,"dose: 14.5 mg/kg/injection, schedule: Q01DX005 (ip), vehicle: Klucel + Tween-80",96 % of control
same,T/C,"dose: 29.0 mg/kg/injection, schedule: Q01DX005 (ip), vehicle: Klucel + Tween-80",96 % of control
same,T/C,"dose: 58.0 mg/kg/injection, schedule: Q01DX005 (ip), vehicle: Klucel + Tween-80",97 % of control
same,T/C,"dose: 116.0 mg/kg/injection, schedule: Q01DX005 (ip), vehicle: Klucel + Tween-80",100 % of control
CN1CC[C@@H](c2ccccc2)[C@@H](O)C1,T/C,[16],97 % of control
same,T/C,[17],100 % of control
CC1C(C(=O)NCCc2ccccc2)CC2CCCCN21 (stereo not given),T/C,[9],102 % of control
same,T/C,[11],96 % of control
O=C1OC(c2ccccc2)(c2ccccc2)CC1CC(O)(c1ccccc1)c1ccccc1 (stereo not given),T/C,[16],98 % of control
same,T/C,[17],90 % of control
CN1CC2c3cc4c(cc3CC1c1cc3c(cc12)OCO3)OCO4 (stereo not given),T/C,"dose: 100.0 mg/kg/injection, schedule: Q01DX001 (ip), vehicle: saline with Tween-80",108 % of control
same,T/C,"dose: 200.0 mg/kg/injection, schedule: Q01DX001 (ip), vehicle: saline with Tween-80",108 % of control
[N-]=[N+]=Nc1ccc(SSCCC(=O)ON2C(=O)CCC2=O)cc1,T/C,[16],118 % of control
same,T/C,[17],116 % of control
CCC(CC)(C(=O)Nc1ccc2[nH]c3ccccc3c(=O)c2c1)C(=O)Nc1ccc2[nH]c3ccccc3c(=O)c2c1,T/C,[16],97 % of control
same,T/C,[17],105 % of control
same,T/C,"dose: 200.0 mg/kg/injection, schedule: Q01DX005 (ip), vehicle: saline with Tween-80",99 % of control
O=NN1CCCNC1=O,T/C,"dose: 12.5 mg/kg/injection, schedule: Q04DX003 (ip), vehicle: saline",118 % of control
same,T/C,"dose: 20.0 mg/kg/injection, schedule: Q01DX009 (ip), vehicle: saline with Tween-80",163 % of control
same,T/C,[3],163 % of control
same,T/C,"dose: 40.0 mg/kg/injection, schedule: Q01DX009 (ip), vehicle: saline with Tween-80",231 % of control
same,T/C,"dose: 50.0 mg/kg/injection, schedule: Q04DX003 (ip), vehicle: saline",172 % of control
same,T/C,"dose: 66.0 mg/kg/injection, schedule: Q04DX003 (ip), vehicle: saline",179 % of control
same,T/C,[4],86 % of control
same,T/C,"dose: 100.0 mg/kg/injection, schedule: Q04DX003 (ip), vehicle: saline",191 % of control and 216 % of control
O=c1cc[nH]c2ccccc12,T/C,"dose: 50.0 mg/kg/injection, schedule: Q01DX009 (ip), vehicle: saline",96 % of control
same,T/C,"dose: 100.0 mg/kg/injection, schedule: Q01DX009 (ip), vehicle: saline",92 % of control
same,T/C,"dose: 200.0 mg/kg/injection, schedule: Q01DX009 (ip), vehicle: saline",97 % of control
NC(=O)Cc1nn[nH]n1,T/C,[13],106 % of control
same,T/C,[14],103 % of control
same,T/C,[15],107 % of control
Cc1ccc(S(=O)(=O)/N=S(\C)CCCl)cc1 (stereo not given),T/C,"dose: 100.0 mg/kg/injection, schedule: Q04DX003 (ip), vehicle: suspension in saline",100 % of control
same,T/C,"dose: 200.0 mg/kg/injection, schedule: Q04DX003 (ip), vehicle: suspension in saline",100 % of control
same,T/C,"dose: 400.0 mg/kg/injection, schedule: Q04DX003 (ip), vehicle: suspension in saline",106 % of control
